# Source: patent publication US20210392936A1, “Nutritional composition comprising urea and non-digestible oligosaccharides” (N.V. Nutricia, priority 2018, published 2021)
# Legend:
# [1] = tested on: urease positive B. longum ssp. infantis strains M-63, ATCC17930, DN_163_0041 and R-0033; test: Growth with urea concentrations or tryptone as nitrogen source, scGOS/IcFOS as carbon source (Example 3, second experiment), urease positive; format: cell-based, Bifidobacterium longum ssp. infantis; details: scGOS/IcFOS 20 g/l
# Protocol: Fermenters were sterilized containing 80 ml demi water and 20 ml of a 20 wt % solution of scGOS/IcFOS in a 9:1 wt/wt ratio. As a source of scGOS VivinalGOS (DOMO, Friesland Campina) was used, and as a source of IcFOS, RaftilinHP was used (Orafti). After sterilization 100 ml of sterilized 2× concentrated BASE medium was added. The final concentration of scGOS/IcFOS was 2 wt % based on volume, and this served as the carbon source. As a nitrogen source tryptone was added (3.0 g/l), or 0, 10, 50 or 100 mM urea (final concentration), corresponding to 0, 0.6 g/l, 3 g/l and 6 g/l. Precultures were grown in static tubes in 1×BASE supplemented with 3.0 g/l tryptone and 2 wt % scGOS/IcFOS under an anaerobic gas atmosphere (90% N2, 5% Hz, 5% CO2).
# (§1) Inoculation occurred from a single colonies grown on TOS-mupirocin agar plates as known in the art. The main cultures (in the fermenters) were performed with 1×BASE supplemented with 0, 15, 50 or 100 mM urea (if applicable). During fermentation the headspace was flushed with N2 gas or with an anaerobic gas mixture ((90% N2, 5% H2, 5% CO2). CO2 is known to be needed for the growth of most Bifidobacteria in the absence of substrates that can liberate CO2.
# (§2) The main fermenters were inoculated with the preculture of B. breve at an OD600 of 0.05. For the B. longum subspecies infantis and bifidum mix the individual precultures were first mixed in an equal amount based on OD600 and subsequently also inoculated with a start OD600 of 0.05. The medium was stirred at 360 rpm by magnet stirring bar. The pH was controlled at 6.2 by addition of 5M NaOH. All growth (precultures, main fermenters, agar plates) experiments were performed at 37° C. Growth was monitored in time by off-line OD600 measurement. Samples were diluted before measurement where appropriate.
# A second experiment was performed. Here the growth with different concentrations urea as nitrogen (and CO2) source was compared to Tryptone (from Oxoid) as nitrogen source. In this case only B. longum ssp. infantis strains M-63, ATCC17930, DN_163_0041 and R-0033 were used and tryptone was removed from the basal medium. Where applicable tryptone or urea were added as nitrogen source to final concentrations of 3 g/l and 10, 50 or 100 mM, respectively. Instead of lactose as carbon source scGOS/IcFOS in a 9:1 wt/wt ratio was used in a final concentration of 20 g/l. As a source of scGOS VivinalGOS (FrieslandCampina) was used, and RaftininHP (Orafti) was used as IcFOS source.
# [2] = tested on: urease negative Bifidobacteria (Bifidobacterium breve DSM20213); test: Growth with urea or tryptone as nitrogen source, scGOS/IcFOS as carbon source (Example 3, second experiment), urease negative; format: cell-based; details: CO2 gas, 50 mM urea, scGOS/IcFOS 20 g/l
# [3] = tested on: Bifidobacterium breve DSM20213 (urease negative); test: Fermenter growth of urease negative Bifidobacterium with or without urea and CO2 (Example 3, first experiment); format: cell-based; details: urea N source (100 mM), lactose 20 g/l
# Source text: The following strains were used: Bifidobacterium breve DSM20213, which is the type strain of B. breve and urease negative. A mix of Bifidobacterium longum subspecies infantis strains was used that were predicted to be urease positive, to increase the chance of having a urease activity. […] Strains used were a mix of Bifidobacterium longum spp infantis DSM20088 (type strain), B. infantis M-63 (Morinaga), B. longum subspecies infantis ATCC 17930, B. longum subspecies infantis DN_163_0041 isolated from the faeces of a bottle-fed infants, B. infantis DN_163_0046 and B. longum ssp. infantis R-0033 (Lallemand) and Bifidobacterium bifidum ATCC29521 (type strain).
# g/l yeast extract, 0.75 g/l tryptone, 3 g/l KH2PO4, 4.8 g/l K2HPO4, 0.2 g/l MgSO4, 0.5 g Cysteine.HCl, 15 g Sodium Propionate, supplemented with 10 ml vitamin mix and 10 ml metal mix from 100× concentrates (Teusink et al. 2005, AEM, Vol 71 (issue 11) p. 7253-7262) and 100 μM NiCl. The pH of this medium is 6.8 (+/−0.05). As carbon source 20 g/l lactose was used and when appropriate urea was added to a final concentration of 100 mM. The medium was sterilized using filtration step with a 0.22 μm filter. […] Precultures of bifidobacterium strains were grown statically in absence of urea at 37° C. in an anaerobic atmosphere (90% N2, 5% Hz, 5% CO2).
# as §1, §2
compound,measurement,setting,value
NC(N)=O [urea],Growth expressed as OD600,"[1]; CO2 gas, 50 mM urea, 15 min",0.079 OD600
same,Growth expressed as OD600,"[1]; CO2 gas, 50 mM urea, 135 min",0.161 OD600
same,Growth expressed as OD600,"[1]; CO2 gas, 50 mM urea, 270 min",0.670 OD600
same,Growth expressed as OD600,"[1]; CO2 gas, 50 mM urea, 445 min",2.610 OD600
same,Growth expressed as OD600,"[1]; CO2 gas, 50 mM urea, 625 min",6.500 OD600
same,Growth expressed as OD600,"[1]; CO2 gas, 50 mM urea, 24 h",6.5 OD600
same,Growth expressed as OD600,"[1]; N2 gas, 10 mM urea, 15 min",0.084 OD600
same,Growth expressed as OD600,"[1]; N2 gas, 10 mM urea, 135 min",0.137 OD600
same,Growth expressed as OD600,"[1]; N2 gas, 10 mM urea, 270 min",0.390 OD600
same,Growth expressed as OD600,"[1]; N2 gas, 10 mM urea, 445 min",1.280 OD600
same,Growth expressed as OD600,"[1]; N2 gas, 10 mM urea, 625 min",3.900 OD600
same,Growth expressed as OD600,"[1]; N2 gas, 10 mM urea, 24 h",3.720 OD600
same,Growth expressed as OD600,"[1]; N2 gas, 50 mM urea, 15 min",0.082 OD600
same,Growth expressed as OD600,"[1]; N2 gas, 50 mM urea, 135 min",0.140 OD600
same,Growth expressed as OD600,"[1]; N2 gas, 50 mM urea, 270 min",0.450 OD600
same,Growth expressed as OD600,"[1]; N2 gas, 50 mM urea, 445 min",1.260 OD600
same,Growth expressed as OD600,"[1]; N2 gas, 50 mM urea, 625 min",2.970 OD600
same,Growth expressed as OD600,"[1]; N2 gas, 50 mM urea, 24 h",2.850 OD600
same,Growth expressed as OD600,"[1]; N2 gas, 100 mM urea, 15 min",0.079 OD600
same,Growth expressed as OD600,"[1]; N2 gas, 100 mM urea, 135 min",0.144 OD600
same,Growth expressed as OD600,"[1]; N2 gas, 100 mM urea, 270 min",0.430 OD600
same,Growth expressed as OD600,"[1]; N2 gas, 100 mM urea, 445 min",1.130 OD600
same,Growth expressed as OD600,"[1]; N2 gas, 100 mM urea, 625 min",2.800 OD600
same,Growth expressed as OD600,"[1]; N2 gas, 100 mM urea, 24 h",2.520 OD600
same,Growth expressed as OD600,[2]; 15 min,0.074 OD600
same,Growth expressed as OD600,[2]; 135 min,0.125 OD600
same,Growth expressed as OD600,[2]; 270 min,0.280 OD600
same,Growth expressed as OD600,[2]; 445 min,0.460 OD600
same,Growth expressed as OD600,[2]; 625 min,0.590 OD600
same,Growth expressed as OD600,[2]; 24 h,1.020 OD600
same,Growth expressed as OD600,"[3]; CO2 gas, 60 min",0.062 OD600
same,Growth expressed as OD600,"[3]; CO2 gas, 180 min",0.083 OD600
same,Growth expressed as OD600,"[3]; CO2 gas, 360 min",0.211 OD600
same,Growth expressed as OD600,"[3]; CO2 gas, 660 min",1.560 OD600
same,Growth expressed as OD600,"[3]; CO2 gas, 23 h",2.250 OD600
same,Growth expressed as OD600,"[3]; N2 gas, 60 min",0.051 OD600
same,Growth expressed as OD600,"[3]; N2 gas, 180 min",0.061 OD600
same,Growth expressed as OD600,"[3]; N2 gas, 360 min",0.072 OD600
same,Growth expressed as OD600,"[3]; N2 gas, 660 min",0.054 OD600
same,Growth expressed as OD600,"[3]; N2 gas, 23 h",0.046 OD600
